# From patent US20230073125A1, “PERIODONTAL MICROPATCH AND USES THEREOF” (priority 2019, published 2023)
# How the values were obtained:
# [1] = system: M1 (and M0) macrophages; experiment: Macrophage polarization, transwell, flow cytometry and qPCR; type: cell-based, rat; details: treatment with IL-4; qPCR of markers and cytokines
# Experimental: Costar transwell inserts (pore size 1 μm) was used for assessing the effectiveness of the released factor(s) on the polarization of macrophages and differentiation of T cells. Patches containing cytokines (4 experimental groups: no drug, IL-4 alone, TGF-β alone and IL-4/TGF-β) placed in the upper chamber. The bottom chamber contains artificial saliva modified media and 10^5 of either primary monocytes or naïve T cells or both (5×10^4). The isolation of primary monocytes was performed as described. Naïve T cells isolated using EasySep Rat T Cell Isolation Kit (STEMCELL Technologies) according to manufacturer's protocol. The change in macrophage phenotypes tested at different time points (day 1-5) using flow cytometry by checking the surface markers (M1): major histocompatibility complex class II (MHC II), CCR7, CD80 and CD86; M2: CD163 (M2c) and CD206 (M2a)). […] Quantitative PCR (qPCR) was used to determine the gene expression of these inflammatory cytokines and cellular markers (as exemplified in FIG. 11D). […] The expression of Foxp3 was measured by flow cytometry. […]
# Costar transwell inserts (pore size 1 μm) were used to assess the effectiveness of released factor(s) on macrophage polarization and T cell differentiation. […] Quantitative PCR (qPCR) was used to determine gene expression of inflammatory cytokines and cellular markers (as exemplified in FIG. 23A-23B). […]
# [2] = Cytokine loading and release from microparticles/microneedles in artificial saliva, ELISA; type: physicochemical; details: 37° C., up to four weeks
# Source text: For high quality periodontal treatment, the periodontal patch should act as an immunomodulator by delivering small molecules drugs and/or bioactive molecules to control infection (e.g., with antibiotics), modulate inflammation (e.g., FIG. 11A) and induce the recovery of alveolar bone. Here we used same method as described in Approach 1 to fabricate microneedles (FIG. 10A). IL-4- or TGF-β-loaded silica-heparin microparticles mixed with polymer (e.g., alginate) solution and cast into the molds to generate the microneedle patches. […] At selected time intervals (every 12 hour), the medium was collected and analyzed for released proteins using ELISA Kits. At the end of release study, the remaining proteins extracted from the particles/needles by dissolving them and the percentage of cumulative released proteins measured according to methods explained before. The released percentage measured based on the ratio of the amount released at each time point to the amount that was initially loaded. […]
# The microneedle chemical formulation can be further modified for co-encapsulation of both small molecule antibiotics (encapsulated in PLGA NPs) and cytokines (encapsulated in alginate-heparin microparticles), which was integrated and addressed in Aim 3. […] At selected time intervals (every 12 hours), media was collected and analyzed for released proteins using ELISA. […]
# [3] = system: periodontal disease; details: 40 ng local administration per treatment, rat model; cited from earlier work
# [4] = system: naïve CD4+ T-cells; experiment: Induced Treg differentiation, Foxp3/CD25 by flow cytometry; type: cell-based, rat; details: soluble (no particles) TGF-β
# Experimental: Activation and differentiation of T cells were tested by considering expression of CD25 surface activation marker (FIG. 11C) as well as intracellular expression of the transcription factor Foxp3. […] We also tested the ability of controlling differentiation of naïve T-cells into induced Treg by providing sustained release TGF-β from alginate-based particles. We cultured rigorously naïve CD4+ T-cells with anti-CD3 and anti-CD28 for 4 days in the wells containing the microparticles loaded with TGF-β at different concentrations and compared them to the soluble (no particles) counterparts at identical concentrations. The expression of Foxp3 was measured by flow cytometry. […] T cell activation and differentiation was tested by expression of CD25 surface activation marker and intracellular expression of the transcription factor Foxp3.
Substance,macrophage reprogramming [1],cytokine release from designed platforms [2],bone regeneration [3],periodontal disease progression [3],Foxp3 expression at very high soluble concentrations [4]
interleukin 4 [IL-4],successful reprograming of M1 (and M0) macrophages toward M2,prolonged release,helps regenerate bone,reduces periodontal disease progression,
transforming growth factor beta [TGF-β],,prolonged release,,,plateaued and was even slightly suppressed
